Experimental data: PubChem BioAssay (NCI)
“And” between values parts separate entries of the source, which are not always exact repeats. Equal entries are not always repeated.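 The compound was tested at five concentrations on cells cultured in 96-well plates, with a 48-hour exposure period. The concentration for 50% growth inhibition is given as GI50. Definition used: TGI = concentration required for complete inhibition of growth.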

Columns and labels:
Assay in all cases: inhibition of tumour cell growth, NCI panel, 48 h
[1] = system: NCI-H460 lung
[2] = system: CCRF-CEM leukemia
[3] = system: DU-145 prostate
[4] = system: TK-10 renal
[5] = system: SNB-75 CNS
[6] = system: OVCAR-4 ovarian
[7] = system: ACHN renal
[8] = system: MOLT-4 leukemia

| Compound | GI50 [1] | TGI [1] | GI50 [2] | TGI [2] | GI50 [3] | TGI [3] | GI50 [4] | TGI [4] | GI50 [5] | TGI [5] | GI50 [6] | TGI [6] | GI50 [7] | TGI [7] | GI50 [8] | TGI [8] |
| --- | --- | --- | --- | --- | --- | --- | --- | --- | --- | --- | --- | --- | --- | --- | --- | --- |
| CCN(CC)c1ccc2nc3ccc(=[N+](CC)CC)cc-3oc2c1 | 0.108 µM | 8.12 µM | 0.0973 µM | > 100 µM | 0.522 µM | 20.9 µM | 0.474 µM | 3.57 µM | 1.31 µM | 6.85 µM | 0.0463 µM | 1.28 µM | 1.56 µM | 59.8 µM | 0.286 µM | > 100 µM |
| COc1cc(-c2nccc3[nH]c(-c4ccc5cc[nH]c5c4)nc23)cc(OC)c1OC | < 0.01 µM | 1.04 µM | < 0.01 µM | 12.2 µM | < 0.01 µM | 11.4 µM | 1.13 µM | 7.88 µM | < 0.01 µM | 6.6 µM | 0.0307 µM | 17.1 µM | < 0.01 µM | 3.02 µM | < 0.01 µM | 7.26 µM |
| CC(=O)NC1C(O[C@H]2C[C@H]3[C@@H]4CC=C5C[C@@H](O)CC[C@]5(C)[C@H]4CC[C@]3(C)[C@H]2[C@H](C)C(=O)CCC(C)C)OCC(O)C1O (some centres not stated) | 1.71 µM | 6.1 µM | 1.25 µM | 4.15 µM | 5.89 µM | > 42.5 µM | 13.9 µM | > 42.5 µM | 0.909 µM | 10.9 µM | 5.31 µM | 41 µM | 3.75 µM | > 42.5 µM | 1.22 µM | 3.11 µM |
| O=C(O)CN(CCN(CC(=O)O)CC(=O)O)CC(=O)O.[Mn+2] | > 100 µM | > 100 µM | > 100 µM | > 100 µM | > 100 µM | > 100 µM | > 100 µM | > 100 µM | > 100 µM | > 100 µM | > 100 µM | > 100 µM | > 100 µM | > 100 µM | > 100 µM | > 100 µM |
| ClCCOCCn1cnc2c(Cl)nc(Cl)nc21 | 5.57 µM | 19.2 µM | 11.7 µM | > 100 µM | 10.2 µM | 21.9 µM | 18.5 µM | 60.6 µM | 13.8 µM | 29.2 µM | 17.3 µM | 35.5 µM | 14.4 µM | 27.5 µM | 24.7 µM | > 100 µM |
| Cc1noc(NC(=O)Nc2ccccc2F)c1C#N | – | > 34.2 µM | – | > 100 µM | – | > 100 µM | – | > 45.1 µM | – | > 100 µM | – | > 100 µM | – | > 46.7 µM | – | > 100 µM |
| C#Cc1ccc(-n2c(/C=C/c3ccc(O)cc3)nc3ncccc3c2=O)cc1 | 3.33 µM | 14.1 µM | 3.3 µM | > 100 µM | 4.1 µM | 76.5 µM | 8.78 µM | 68.7 µM | 0.948 µM | 32.5 µM | 22.8 µM | > 100 µM | 6.31 µM | > 100 µM | 7.35 µM | > 100 µM |
| COc1ccc(-c2cc(/C=C/C(=O)c3ccc(N)cc3)[nH]n2)cc1OC | 2.03 µM | 4.53 µM | 1.74 µM | 7.81 µM | 3.74 µM | 13.5 µM | 10.9 µM | 23 µM | 2.74 µM | 14.2 µM | 2.68 µM | 15.8 µM | 1.67 µM | 3.29 µM | 3.11 µM | 16.5 µM |
| CCCCS(=O)c1sc2nc(-c3cccs3)cc(-c3ccccc3)c2c1N (configuration not stated) | 13 µM | > 96.8 µM | 6.71 µM | > 84.8 µM | 30.4 µM | > 100 µM | 15 µM | > 84 µM | 10.2 µM | 98.7 µM | 13.5 µM | > 100 µM | 9.1 µM | > 95.3 µM | 3.8 µM | > 62.6 µM |
| C=CCN(CC=C)C(=O)c1cc(C)nc2c1c(=O)n(-c1ccccc1)c(=O)n2CCCN1CCN(c2ccccc2OC)CC1 | > 50 µM | > 50 µM | > 50 µM | > 50 µM | > 50 µM | > 50 µM | > 50 µM | > 50 µM | 31.4 µM | > 50 µM | > 50 µM | > 50 µM | > 50 µM | > 50 µM | > 50 µM | > 50 µM |
| CC(C)[C@@H]1CC[C@]2(CO2)[C@@H]2C(=O)OCC(C(=O)O)=C[C@H]21 | 0.402 µM | > 100 µM | 0.319 µM | 2.85 µM | 0.471 µM | > 100 µM | 0.686 µM | > 93.5 µM | 0.422 µM | > 100 µM | 0.44 µM | > 100 µM | 0.43 µM | > 100 µM | 0.62 µM | 3.96 µM |
| CC(=O)Oc1ccc(C2=Cc3ccc(OC(C)=O)cc3OC2C)cc1 (configuration not stated) | 3.35 µM | 13.2 µM | 0.525 µM | 22.5 µM | 3.27 µM | 13.9 µM | 20 µM | > 100 µM | 3.48 µM | 29.7 µM | 14.2 µM | 81.4 µM | 2.29 µM | > 100 µM | 1.97 µM | 19.4 µM |
| Nc1nc(=S)c2ncn(C3OC(COP(=O)(O)O)C(O)C3O)c2[nH]1 (configuration not stated) | 0.562 µM | 10.9 µM | 0.406 µM | > 100 µM | 0.577 µM | > 100 µM | 1.89 µM | > 100 µM | 0.96 µM | > 100 µM | 2.19 µM | > 100 µM | 1.99 µM | > 100 µM | 0.354 µM | > 100 µM |
| COc1ccc(-c2nc3ccc(Cc4ccc5nc(-c6ccc(OC)cc6)[nH]c5c4)cc3[nH]2)cc1 | 0.0335 µM | 0.122 µM | < 0.01 µM | 0.275 µM | 0.0385 µM | 0.154 µM | 1.1 µM | 2.32 µM | 0.0259 µM | 1.23 µM | 0.189 µM | 2.14 µM | 0.101 µM | 1.96 µM | < 0.01 µM | 1.29 µM |
| C(=Nc1nc(SCc2ccccc2)nc2[nH]ncc12)c1cccs1 | 33.2 µM | > 100 µM | 37.2 µM | > 100 µM | 43 µM | > 100 µM | 44.3 µM | > 100 µM | > 100 µM | > 100 µM | > 100 µM | > 100 µM | 43.6 µM | > 100 µM | 23.6 µM | 85.9 µM |
| Cc1cc(Cl)nc(N(CCNc2ccnc3cc(Cl)ccc23)Cc2ccco2)n1 | 1.84 µM | 3.94 µM | 1.92 µM | 5.04 µM | 1.9 µM | 3.8 µM | 2.62 µM | 8.39 µM | 1.57 µM | 4.18 µM | 1.67 µM | 3.38 µM | 1.71 µM | 3.4 µM | 2.09 µM | 4.65 µM |
| CN(C)c1ccc(-c2cc(-c3ccc(Nc4nc(Nc5ccc(Cl)cc5)nc(Nc5ccc(Cl)cc5)n4)cc3)nc(N)c2C#N)cc1 | 15.4 µM | > 100 µM | 2.59 µM | 36.5 µM | 34.6 µM | > 100 µM | 53.8 µM | > 100 µM | 3.05 µM | > 100 µM | 9.86 µM | > 100 µM | 13.1 µM | > 100 µM | 2.13 µM | 20.5 µM |
| COc1ccccc1CNCCN1C(=O)c2ccc3c4c(ccc(c24)C1=O)C(=O)N(CCNCc1ccccc1OC)C3=O | 0.208 µM | 0.458 µM | 0.244 µM | – | 0.321 µM | 1.11 µM | 0.263 µM | 0.735 µM | 1.4 µM | 2.83 µM | 0.132 µM | 0.261 µM | 0.39 µM | 1.24 µM | 0.252 µM | 0.65 µM |
| CN1CCN(c2c(F)cc(NC3=C(Cl)C(=O)c4ncccc4C3=O)cc2F)CC1 | 18.1 µM | 36 µM | 2.24 µM | 22 µM | 12.7 µM | 26.2 µM | 1.93 µM | 3.67 µM | 10.9 µM | 23.9 µM | 1.33 µM | 2.66 µM | 1.61 µM | 2.96 µM | 1.79 µM | 6.71 µM |
| OCCCCC#Cc1ccccc1C#Cc1cccc(C(F)(F)F)c1 | 18.4 µM | 40.6 µM | 20.2 µM | 38.2 µM | 15.3 µM | 29.9 µM | 16.9 µM | 32.2 µM | 14.6 µM | 29.3 µM | 14 µM | 28.1 µM | 18.3 µM | 32.4 µM | 21.8 µM | 59.9 µM |
| CC[C@H](C)[C@H](NC(=O)[C@H]1CCCCN1C)C(=O)N(C)[C@H](C[C@@H](OC(C)=O)c1nc(C(=O)NC23CC(C(=O)OC)(C2)C3)cs1)C(C)C | 0.0007 µM and 0.00325 µM | > 32.5 µM | 0.000402 µM and 0.00325 µM | 1.47 µM | 0.000449 µM and 0.00325 µM | > 32.5 µM | 0.0458 µM | – | 0.000382 µM and 0.00325 µM | > 32.5 µM | 0.0424 µM and 0.0727 µM | > 32.5 µM | 0.00806 µM and 0.00325 µM | > 32.5 µM | 0.000696 µM and 0.00325 µM | > 32.5 µM |
| CNCc1ccc(-c2cc(-c3nc(-c4ccc(S(=O)(=O)C(C)C)cc4)cnc3N)on2)cc1 | 0.322 µM | 1.6 µM | 0.215 µM | 3.42 µM | 0.798 µM | 5.91 µM | 10.2 µM | 22.3 µM | 11.4 µM | 26.4 µM | 5.05 µM | 22.8 µM | 0.115 µM | 10.9 µM | 0.376 µM | 3.07 µM |
